# System: B cells
# Test: B-lymphocyte adhesion and transmigration, MesenFlow assay
# Assay type: cell-based
# Conditions: 30 μM
# Description: Flow assays were conducted as described in a previous study (Bradfield, P. F., et al., JAM-C regulates unidirectional monocyte transendothelial migration in inflammation. Blood, 2007. 110(7): p. 2545-55). HUVECs were cultured at 1×10^5 cells/slide on Ibidi 6-chamber slides (80606; Ibidi) before treatment with TNFα (500 U/mL) for 6-10 hours. An individual chamber outlet was then attached to a calibrated pump (74 900; Cole Partner, Vernon Hills, IL) and flow was generated by perfusing wash buffer (M199 with 0.15% BSA) or a monocyte suspension (2.5×10^6 cells/mL) over the HUVEC monolayer. The flow rate was representative of shear rates in small venules (0.05 Pa). Observations made using phase-contrast microscopy (Model: Axiovert 100; Objective: 20×/0.3 NA air; Carl Zeiss) were recorded using a high-resolution camera (D70; Nikon, Zurich, Switzerland). Individual images were recorded every 30 seconds with Nikon capture software (v4.2) and compiled into movie sequences using Adobe Photoshop (CS6) and Image J (v1.5d), allowing analysis of individual monocytes over large areas. The tested compounds, e.g. compounds of the general Formula (I), were maintained at the specified concentration in all wash buffers throughout the course of the experiment. The compounds were preincubated separately on both HUVECs and monocytes 15 minutes prior to flow co-culture. […]
smiles,measurement,value
"COC(=O)c1ccc(COc2c(C=C3C(=O)NC(=O)NC3=O)cccc2C(C)(C)C)cc1 [Formula 2, methyl 4-((2-(tert-butyl)-6-((2,4,6-trioxotetrahydropyrimidin-5(2H)-ylidene)methyl)phenoxy)methyl) benzoate]",B cell adhesion and transmigration,dramatic blocking effect

# Source: patent US12252472B1, “Barbituric acid derivatives, their preparation and use thereof as leukocyte transmigration inhibitors and for treating inflammatory diseases, autoimmune diseases and cancer” (BAR-ILAN UNIVERSITY, priority 2017, dated 2025)
